Experimental data taken from patent US20070037736A1, “Therapeutic composition comprising the KAL protein and use of the KAL protein for the treatment of retinal, renal, neuronal and neural injury” (INSTITUT PASTEUR, priority 1997, published 2007).

Experiments:
Assay type in all cases: cell-based, rat
PC12 cells = experiment: Adhesion and inhibition assay, colorimetric; settings: data not shown
Method: (§1) Adhesion assays were performed as described in (à compléter) with some modifications. Coating with the various molecules, at the indicated concentrations in 0.5 ml PBS, was performed in plastic 24-well multidishes (Nunclon™) at 37° C. (1 h or overnight).The cells were then washed three times with PBS, coating blocked with 1% heat-inactivated BSA (à compléter) for at least 1 h at 37° C., followed by three PBS washes, before addition of the cells (10^6 cells per ml in serum-free medium containing 0.1% heat-inactivated BSA). In standard experiments, purified KAL was applied at 3 μg/ml. Other substrates were used as control, fibronectin ([…]) and poly-L-lysine (100 μg/ml).
(§2) Cells were incubated for 30 min to 1 h on coated wells. Medium was then aspirated and unbound cells removed by one wash with PBS. The adherent cells were fixed with […] paraformaldehyde (PFA) in PBS and stained with 0.1% crystal violet. Quantification of the attached cells was performed using a colorimetric method (à compléter). Data are expressed as the percentage of adherent cells on each tested substrate with reference to poly-L-lysine. Assays in triplicate were repeated in three independent experiments.
Cells were incubated for 5 min at room temperature in HBSS containing 5 mM EDTA, washed once with HBSS and preincubated for 1 h at 4° C. in HBSS containing 0.1% BSA in the absence or in the presence of Ca^++ and/or Mg^++ prior plating.
Heparin, heparan sulfate or chondroitin sulfate (up to 1 mg/ml in PBS) was added in KAL-coated-BSA-saturated wells, and allowed to interact for 2 h at 37° C. After three washings with PBS, CHO-K1or PC12 cells were plated, and incubated as usual.
A 32 aminoacid peptide (32R1-FIG. 24) was synthesized (Syntiem laboratory). Control peptides were C17 (NH2CSLVPTKKKRRKTTDGF-COON) (SEQ ID NO:7) derived from the second fibronectin type III repeat of human KAL and C 16V (NHzCGSYANNNRYGRDPPTSV-000H), (SEQ ID NO:8) derived from the EYA1 protein (a completer). The peptides, at various concentrations (10 to 30 μg/ml), were directly adsorbed on polystyrene microtiter wells (Immulon 4, Nunc). […]

[1] = test system: olfactory neurons (line 24); experiment: Adhesion and peptide/serum inhibition assay, colorimetric; settings: for percentage of olfactory neurons (line 24) adherent on substrate: substrate coated to microtiter wells
Method: as §1, §2
A 32 aminoacid peptide (32R1-FIG. 24) was synthesized (Syntiem laboratory). Control peptides were C17 (NH2CSLVPTKKKRRKTTDGF-COON) (SEQ ID NO:7) derived from the second fibronectin type III repeat of human KAL and C 16V (NHzCGSYANNNRYGRDPPTSV-000H), (SEQ ID NO:8) derived from the EYA1 protein (a completer). The peptides, at various concentrations (10 to 30 μg/ml), were directly adsorbed on polystyrene microtiter wells (Immulon 4, Nunc). Adhesion assays were performed as described above.
In peptide inhibition assays, cells were preincubated with the peptides at different concentrations (10 to 100 μg/ml) for 1 h at 4° C., then plated to KAL-coated wells, and incubated for a further 30 min period of time.

[2] = test system: olfactory neurons (line 24); experiment: Spreading and neurite growth on coated substrates; settings: mean ± SEM
Method: FIG. 28: Mean neurite length on the different substrates after one hour, two hours and eight hours in vitro. Mean value±SEM. More than 100 neurons were analyzed in each experimental condition.
Cells, in serum-free medium containing 0.1% heat inactivated BSA were seeded on KAL- or laminin-coated wells, and maintained for 20 min to 22 h at 37° C. Adherent cells were fixed, stained with toluidine blue, and photographied with an inverted microscope.

## O=C(O)CN(CCN(CC(=O)O)CC(=O)O)CC(=O)O [EDTA]
PC12 cells; cells incubated with EDTA for 5 minutes prior plating
  effect of chelating Ca++ and Mg++ on adhesion of PC12 cells to KAL: did not modified the amount of adhering cells

## NH2CSLVPTKKKRRKTTDGF-COON [17R2, reference compound]
[1]; 50 μM
  effect of preincubation with peptide on adhesion to KAL: had no effect
[1]
  percentage of olfactory neurons (line 24) adherent on substrate: no adhesion

## NHz-RPSRWYQFRVAAVNVHGTRGFTAPSKHFRSSK-000H [32R1]
[2]; eight hours after plating
  mean neurite length per olfactory neuron: 63 (±2) μm
[2]; one hour on substrate
  mean neurite length per olfactory neuron: 32 (±4) μm
PC12 cells; compared with olfactory neurons
  adhesion of PC12 cells on peptide substrate: same results
[1]
  effect of preincubation with peptide on adhesion to fibronectin and laminin substrates: had no effect
  percentage of olfactory neurons (line 24) adherent on substrate: 80%
[1]; cells preincubated with peptide
  concentration of peptide giving complete inhibition of adhesion to KAL substrate: 26 µM

## NHzCGSYANNNRYGRDPPTSV-000H [C16V, reference compound]
[1]
  percentage of olfactory neurons (line 24) adherent on substrate: no adhesion
